Experimental data reported in US5430062A, “Stilbene derivatives as anticancer agents” (priority 1993, dated 1995).
Where “and” joins values, the source holds several entries; their conditions need not be identical. Equal values may be shown once. Entries after “also recorded” stand apart in the source; their conditions may differ. Where a name gives a salt, the structure may show the parent alone. Read-outs that look alike come from different tables or passages of the source.

Legend:
A-549 lung carcinoma = assay: MTT cytotoxicity assay, A-549; settings: Homo sapiens, A549, […]
tubulin [1] = assay: Inhibition of [3H]colchicine binding to tubulin (DEAE-filter); parameters: species or system bovine; settings: 1 μM tubulin, 5 μM [3H]colchicine, 5 μM inhibitor, 10 min, 37° C.
MCF-7 breast carcinoma = assay: MTT cytotoxicity assay, MCF-7; settings: Homo sapiens, MCF7, […]
SKMEL-5 melanoma = assay: MTT cytotoxicity assay, SKMEL-5; settings: Homo sapiens, SK-MEL-5, […], read-out: Cytotoxicity ED50, SKMEL-5
tubulin [2] = assay: Inhibition of tubulin polymerization (turbidimetry); format: biochemical, bovine; settings: for increase in IC50 / loss of activity in tubulin polymerization: relative to the parent 5a (8a, 5b) or 8a (12a)
[3] = test system: five cancer cell cultures; assay: MTT cytotoxicity assay, five cancer cell cultures taken together; settings: for less cytotoxic than 1a and 5a: relative to 1a and 5a; for cytotoxicity (in words): five cancer cell lines
MLM melanoma = assay: MTT cytotoxicity assay, MLM; settings: […]
[4] = test system: HT-29 colon adenocarcinoma; assay: MTT cytotoxicity assay, HT-29; settings: Homo sapiens, HT-29, […]
CAKI-1 renal cancer = assay: Cytotoxicity, CAKI-1
SF-295 CNS cancer = assay: Cytotoxicity, SF-295; settings: read-out: cytotoxicity GI50, SF-295, 50% growth inhibition, average of two determinations, 8640 min
OVCAR-3 ovarian cancer = assay: Cytotoxicity, OVCAR-3
[5] = test system: DMS 273 small cell lung cancer; assay: Cytotoxicity, DMS 273; settings: read-out: cytotoxicity GI50, DMS 273, 50% growth inhibition, average of two determinations, 8640 min
M14 melanoma = assay: Cytotoxicity, M14
HL-60 (TB) leukemia = assay: Cytotoxicity, HL-60(TB) leukemia; settings: read-out: cytotoxicity GI50, HL-60(TB), 50% growth inhibition, average of two determinations, 8640 min
COLO 205 colon cancer = assay: Cytotoxicity, COLO 205; settings: read-out: cytotoxicity GI50, COLO 205, 50% growth inhibition, average of two determinations, 8640 min
[6] = read-out: Cytotoxicity ED50, A-549
[7] = read-out: Cytotoxicity ED50, MCF-7
[8] = first series (Table VIII and text), 37° C., 20 min, read-out: Tubulin polymerization IC50 (±S.D.)
[9] = read-out: Cytotoxicity ED50, MLM
[10] = read-out: Cytotoxicity ED50, HT-29
[11] = read-out: cytotoxicity GI50, CAKI-1; 50% growth inhibition; average of two determinations; 8640 min
[12] = read-out: cytotoxicity GI50, OVCAR-3; 50% growth inhibition; average of two determinations; 8640 min
[13] = Table X, different glutamate preparation (1M monosodium glutamate and GTP), read-out: inhibn of tubulin polymn IC50 (±SD)
[14] = read-out: cytotoxicity GI50, M14; 50% growth inhibition; average of two determinations; 8640 min
[15] = read-out: cytotoxicity ED50, five cancer cell lines
[16] = read-out: cytotoxicity ED50, in at least three cell lines

| SMILES | IC50 (A-549 lung carcinoma; [6]) [nM] | Colchicine binding % inhibition (tubulin [1]) [%] | IC50 (MCF-7 breast carcinoma; [7]) [nM] | IC50 (SKMEL-5 melanoma) [nM] | inhibition of tubulin polymerization (in words) (tubulin [2]) | IC50 (tubulin [2]; [8]) | IC50 (MLM melanoma; [9]) [nM] | IC50 [4, 10] [nM] | IC50 (tubulin [2]; [13]) [nM] | GI50 [5] [nM] | cytotoxicity (in words) [3] | other results |
| --- | --- | --- | --- | --- | --- | --- | --- | --- | --- | --- | --- | --- |
| COc1cc(/C=C\c2ccc(Cl)cc2)cc(OC)c1OC [5g, (Z)-1-(4-Chlorophenyl)-2-(3,4,5-trimethoxyphenyl)ethene] | 80 | 55 | 180 | 10 | strong inhibitors of tubulin polymerization; also recorded: active as inhibitors of tubulin polymerization; also recorded: small reductions | 4800 nM | 170 | 50 | – | – | – | IC50 ([3]; read-out: cytotoxicity ED50): < 100 nM; less cytotoxic than 1a and 5a [3]: about 1000 -fold |
| COc1cc(/C=C\c2ccc(Br)cc2)cc(OC)c1OC [5h, (Z)-1-(4-Bromophenyl)-2-(3,4,5-trimethoxyphenyl)ethene] | 11 | 73 | 16 | 6.7 | strong inhibitors of tubulin polymerization; also recorded: active as inhibitors of tubulin polymerization; also recorded: small reductions | 3100 nM | 14 | 8.2 | – | – | – | IC50 ([3]; read-out: cytotoxicity ED50): < 100 nM; less cytotoxic than 1a and 5a [3]: about 1000 -fold |
| CCc1ccc(N=Cc2cc(OC)c(OC)c(OC)c2)cc1 [108b, 4-Ethyl-N-(3,4,5-trimethoxybenzylidene)aniline] | – | – | – | – | – | – | – | – | > 40000 | > 100000 | – | GI50 (CAKI-1 renal cancer; [11]): > 100000 nM; GI50 (SF-295 CNS cancer): > 100000 nM; GI50 (OVCAR-3 ovarian cancer; [12]): > 100000 nM; GI50 (M14 melanoma; [14]): > 100000 nM |
| COc1ccc(N=Cc2cc(OC)c(OC)c(OC)c2)cc1 [108c, 4-Methoxy-N-(3,4,5-trimethoxybenzylidene)aniline] | – | – | – | – | – | – | – | – | > 40000 | 33000 | – | GI50 (CAKI-1 renal cancer; [11]): > 100000 nM; GI50 (OVCAR-3 ovarian cancer; [12]): > 100000 nM |
| CCOc1ccc(N=Cc2cc(OC)c(OC)c(OC)c2)cc1 [108d, 4-Ethoxy-N-(3,4,5-trimethoxybenzylidene)aniline] | – | – | – | – | – | – | – | – | > 40000 | > 100000 | – | GI50 (CAKI-1 renal cancer; [11]): > 100000 nM; GI50 (SF-295 CNS cancer): > 100000 nM; GI50 (HL-60 (TB) leukemia): > 100000 nM; GI50 (OVCAR-3 ovarian cancer; [12]): > 100000 nM; GI50 (M14 melanoma; [14]): > 100000 nM |
| COc1cc(CNc2ccc(C)cc2)cc(OC)c1OC [109a, 4-Methyl-N-(3,4,5-trimethoxybenzyl)aniline] | – | – | – | – | – | – | – | – | 6000 | 92.6 | – | GI50 (SF-295 CNS cancer): 163 nM; GI50 (HL-60 (TB) leukemia): 122 nM; GI50 (COLO 205 colon cancer): 152 nM; IC50 (tubulin [2]; benzylanilines, Table X series, read-out: tubulin polymerization IC50): 6000 nM; GI50 (M14 melanoma; read-out: cytotoxicity GI50, M14, 50% growth inhibition, average of two determinations, 8640 min): 150 nM |
| COc1ccc(NCc2cc(OC)c(OC)c(OC)c2)cc1 [109c, 4-Methoxy-N-(3,4,5-trimethoxybenzyl)aniline] | – | – | – | – | – | – | – | – | 4600 | 141 | – | GI50 (CAKI-1 renal cancer; read-out: cytotoxicity GI50, CAKI-1, 50% growth inhibition, average of two determinations, 8640 min): 458 nM; GI50 (SF-295 CNS cancer): 266 nM; GI50 (HL-60 (TB) leukemia): 115 nM; GI50 (OVCAR-3 ovarian cancer; read-out: cytotoxicity GI50, OVCAR-3, 50% growth inhibition, average of two determinations, 8640 min): 363 nM; GI50 (COLO 205 colon cancer): 235 nM |
| CCc1ccc(NCc2cc(OC)c(OC)c(OC)c2)cc1 [110b, 4-Ethyl-N-(3,4,5-trimethoxybenzyl)aniline Hydrochloride] | – | – | – | – | – | – | – | – | – | – | – | GI50 (SF-295 CNS cancer; Hydrochloride): 339 nM; GI50 (HL-60 (TB) leukemia; Hydrochloride): 245 nM; GI50 (OVCAR-3 ovarian cancer; read-out: cytotoxicity GI50, OVCAR-3, 50% growth inhibition, average of two determinations, 8640 min, Hydrochloride): 405 nM; GI50 (COLO 205 colon cancer; Hydrochloride): 352 nM; IC50 (tubulin [2]; Table X, different glutamate preparation (1M monosodium glutamate and GTP), Hydrochloride, read-out: inhibn of tubulin polymn IC50 (±SD)): 7200 nM; IC50 (tubulin [2]; benzylanilines, Table X series, Hydrochloride, read-out: tubulin polymerization IC50): 7200 nM; GI50 ([5]; Hydrochloride): 818 nM; GI50 (M14 melanoma; read-out: cytotoxicity GI50, M14, 50% growth inhibition, average of two determinations, 8640 min, Hydrochloride): 437 nM |
| COc1cccc(/C=C\c2cc(OC)c(OC)c(OC)c2)c1 [compound 5b, (Z)-1-(3-Methoxyphenyl)-2-(3,4,5-trimethoxy-phenyl)ethene] | – | 50 | – | 60 | strong inhibitors of tubulin polymerization; also recorded: active as inhibitors of tubulin polymerization | 8800 nM | – | – | – | – | decreased the activity drastically | IC50 (A-549 lung carcinoma; read-out: Cytotoxicity ED50, A-549, A-549, MTT, six days): 130 nM; IC50 (MCF-7 breast carcinoma; read-out: Cytotoxicity ED50, MCF-7, MCF-7, MTT, six days): 140 nM; increase in IC50 / loss of activity in tubulin polymerization (tubulin [2]): 4 -fold; IC50 ([3]; read-out: cytotoxicity ED50): < 1000 nM; IC50 (MLM melanoma; read-out: Cytotoxicity ED50, MLM, MLM, MTT, six days): 1400 nM; IC50 ([4]; read-out: Cytotoxicity ED50, HT-29, HT-29, MTT, six days): 90 nM |
| COc1cc(/C=C\c2ccccc2)cc(OC)c1OC [compound 5f, (Z)-1-Phenyl-2-(3,4,5-trimethoxyphenyl)ethene] | 170 | 14 | 250 | 120 | – | 36000 nM | > 25000 | 84 | – | – | decreased the activity drastically | – |
| COc1cc(/C=C\c2ccc(N(C)C)cc2)cc(OC)c1OC [compound 5n, (Z)-1-[4-(N,N-Dimethylamino)phenyl)-2-(3,4,5-trimethoxyphenyl)ethene] | 4.1 | 83 | 5.8 | 0.15 | strong inhibitors of tubulin polymerization; also recorded: small reductions | 3400 nM and 3500 nM | 9.4 | 8.1 | – | – | – | IC50 [3, 15]: < 100 nM; IC50 [3, 16]: < 1000 nM |
| COc1cc(/C=C\c2ccc(OC(C)=O)cc2)cc(OC)c1OC [compound 5p, (Z)-1-(4-Acetoxyphenyl)-2-(3,4,5-trimethoxyphenyl)ethene] | 1700 | 24 | 300 | 600 | – | 29000 nM | 6300 | 6000 | – | – | decreased the activity drastically | – |
| COc1ccc(CCc2cc(OC)c(OC)c(OC)c2)cc1 [compound 8a, 1-(4-Methoxyphenyl)-2-(3,4,5-trimethoxyphenyl)ethane] | 0.18 | 65 | 0.16 | 0.14 | strong inhibitors of tubulin polymerization | 7900 nM | 0.18 | 0.25 | – | – | more cytotoxic than dihydrocombretastatin A-4 (1c) in all five cancer cell lines | increase in IC50 / loss of activity in tubulin polymerization (tubulin [2]): ~4 -fold; IC50 [3, 15]: ~0.2 nM; IC50 [3, 16]: < 1000 nM |
| COc1cc(CCc2ccc(N(C)C)cc2)cc(OC)c1OC [compound 8n, 1-[4-(Dimethylamino)phenyl]-2-(3,4,5-trimethoxyphenyl)ethane] | 83 | 31 | 64 | 59 | only modest inhibitory effects on tubulin polymerization | 29000 nM | 120 | 77 | – | – | – | IC50 [3, 16]: < 1000 nM |
| COc1ccc(NCc2cc(OC)c(OC)c(OC)c2)cc1 [compound 12a, 3,4,5-Trimethoxy-N-(4-methoxyphenyl)benzylamine] | 1.9 | 34 | 2.4 | 0.7 | only modest inhibitory effects on tubulin polymerization | 23000 nM | 1.6 | 1 | – | – | only an order of magnitude less cytotoxic than 8a | increase in IC50 / loss of activity in tubulin polymerization (tubulin [2]): 3 -fold; IC50 [3, 15]: ~1 nM; IC50 [3, 16]: < 1000 nM |
